According to patent publication US20050249743A1, “Isolated peptides which bind to HLA-A24 molecules and uses thereof” (priority 2004, published 2005):
Where no end group is shown, it is not given here.

B1: peptide NYKRCFPVI (SEQ ID NO: 1) from MAGE-4 (peptide)
peptide: NYKRCFPVI
notes: Synthetic 9-mer; also called MAGE-4 antigenic peptide; MAGE-4.A24 peptide

Experiments:
[1] = target: T1, HLA-A2402 (Homo sapiens, UniProt P04439, D101N/D140Y/D185E/E176V/E190D/F33S/G103R/G107R/I119L/I121M/I306V/K335N/L105A/L180Q/L300P/N151K/N90K/Q86E/Q94H/R106L/R138H/R89G/T104I/T345S/V100E/W191G/Y123F); assay: in vitro folding of recombinant HLA-A2402 with beta2-microglobulin and peptide (tetramer production); type: binding; settings: recombinant HLA-A2402 folded in vitro with beta2-microglobulin and peptide
T1 construct: made in house; host or cells: E. coli
Excerpt: (§1) Recombinant HLA-A2402 molecules produced in E. coli were folded in vitro with beta2-microglobulin and peptide NYKRCFPVI (SEQ ID NO: 1) from MAGE-4, or peptide LYVDSLFFL (SEQ. ID NO: 2) from PRAME (control) (See Ikeda, et al., Immunity 6:199-208 (1997)), in accordance with Altman, et al., Science 274:94-96 (1996). The peptide of SEQ ID NO: 1 corresponds to amino acids 143-151 of MAGE-4. This specific peptide was selected because it is homologous to the peptide NYKHCFPEI (SEQ ID NO: 3), a MAGE-1 encoded peptide previously shown to be recognized by HLA-A24 restricted T cells. See Fujie, et al., Int. J. Cancer 80(2):169-172 (1999).
The HLA-peptide complexes were then purified by gel filtration, biotinylated and mixed as described in Altman, et al., supra with extraviden-phycoerythrin (PE) for the HLA-A24/MAGE-4 tetramer, or streptavidin-APC for the PRAME control tetramer. Both extravidin-PE and streptavidin-APC are commercially available. The tetramers were then used to label T cells, as described in the next example.

[2] = test system: HLA-A24+ Epstein Barr Virus-transformed B (EBV-B) cells; assay: chromium release assay, CTL 13 against peptide pulsed EBV-B cells; type: cell-based
Experimental: In this experiment, CTL 13 was tested for specific lytic activity in standard chromium release assays.
In the assay, the targets of CTL 13 were HLA-A24^+ Epstein Barr Virus-transformed B (EBV-B) cells. The EBV-B cells were cultured in IMDM supplemented with 10% fetal calf serum, 0.24 mM L-asparagine, 0.55 mM L-arginine, AAG, 100 U/ml penicillin and 100 μg/ml streptomycin. The EBV-B cells were labeled with ^51Cr for one hour according to standard methods and then incubated for 5 minutes with peptide NYKRCFPVI (SEQ ID NO: 1) (1 μg/ml). The ^51Cr labeled, peptide pulsed EBV-B cells (targets) were then combined with CTL 13 (effector) at effector-to-target ratios shown in FIG. 3A. Chromium release was measured after 4 hours.
In further experiments, the HLA-A24 EBV-B cells were labeled with ^51Cr for one hour according to standard methods and then incubated for 15 minutes with threefold dilutions of the synthetic peptide NYKRCFPVI (SEQ ID NO: 1). CTL 13 was subsequently added at an effector-to-target ratio of 10:1 and chromium release was measured after 4 hours. The concentration of peptide shown in FIG. 3B corresponds to the concentrations during the 4 hour incubation. […] This is in the range of concentration observed for the previously identified antigenic MAGE peptides, for which values ranging from 0.05 to 200 nM have been observed. […]

[3] = target: Recombinant HLA-A2402 molecules produced in E. coli, folded with beta2-microglobulin (human); assay: in vitro folding of recombinant HLA-A2402 with beta2-microglobulin and peptide
Excerpt: as §1, with “NYKRCFPVI” left out, “LYVDSLFFL” left out, “NYKHCFPEI” left out

| Molecule | formation of HLA-A2402/peptide complexes [1] | EC50 ([2]; CTL 13, effector-to-target ratio 10:1, chromium release after 4 hours, read-out: peptide concentration giving half maximal lysis of peptide pulsed HLA-A24 target cells) | lysis of peptide pulsed target cells by CTL 13 ([2]; peptide 1 μg/ml, 5 minutes pulse, chromium release after 4 hours, unpulsed control targets not lysed) | binding result [3] |
| --- | --- | --- | --- | --- |
| NYKRCFPVI [SEQ ID NO: 1, NYKRCFPVI] | successful production of HLA-A2402 and SEQ ID NO: 1 peptide complexes | 8 nM | lysed target cells pulsed with SEQ ID NO: 1 peptide | – |
| B1 | – | – | – | binds |
